Test results taken from PMC10515640, “Structure-Based Optimization of Covalent, Small-Molecule Stabilizers of the 14-3-3σ/ERα Protein–Protein Interaction from Nonselective Fragments” (Journal of the American Chemical Society, 2023).

Legend:
14-3-3σ/ERα [1] = target: T1, 14-3-3σ/ERα (Homo sapiens, UniProt P03372+P31947); test: Fluorescence anisotropy protein titration, FAM-labeled ERα peptide; type: binding; conditions: 10 nM FAM-ERα peptide, versus DMSO reference
T1 construct: The 14-3-3 σ isoform (full-length for mass spectrometry and fluorescence anisotropy assays, ΔC for crystallography); made in house; host or cells: E. coli Rosetta 2(DE3)pLysS, pPROEX HTb vector
Procedure: To evaluate compound-mediated stabilization of the 14-3-3σ/ERα complex directly, FA protein titrations were performed at a saturating concentration of compound. FA protein titrations allowed the quantification of the cooperative effect by comparing the apparent dissociation constants (appKD) of the binary and ternary complexes. 14-3-3σ was titrated into 10 nM FAM-labeled ERα peptide in the presence of DMSO or 100 μM of the compounds (Table S4). […]
diluted in buffer (10 mM HEPES, pH 7.5, 150 mM NaCl, 0.1% Tween20, 1 mg/mL Bovine Serum Albumin (BSA; Sigma-Aldrich). Final DMSO in the assay was always 1%. […]
Protein titrations were made by titrating 14-3-3σ in a 2-fold dilution series (starting at 300 µM) to a mix of fluorescein-labeled peptide (10 nM) and DMSO or compound (100 µM). Fluorescence anisotropy measurements were performed after overnight incubation at room temperature. […]
Wells containing only FAM-peptide were used to set as G-factor at 35 mP. Data reported are at endpoint. EC50 and apparent Kd values were obtained from fitting the data with a four-parameter logistic model (4PL) in GraphPad Prism 7 for Windows. Data was obtained and averaged based on either three (compound titrations) or two (protein titrations) independent experiments.

14-3-3σ/ERα [2] = target: T1, 14-3-3σ/ERα; test: Mass spectrometry dose response, compound binding to 14-3-3σ in the presence of ERα phosphopeptide; conditions: 100 nM compound, 100 nM 14-3-3σ, ERα-peptide 2 µM
Summary of the method: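 Covalent labeling of Cys38 on 14-3-3σ was tracked by LC-MS on a Waters Acquity UPLC/Xevo G2-XS Q-Tof, with samples desalted on a Protein BEH-C4 column. Full-length wild type 14-3-3σ (100 nM) plus ERα phosphopeptide was mixed with compound in 10 mM TRIS, pH 8.0, at 50 μl per well. Percent bound was measured at several time points.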

14-3-3σ/C-RAF [3] = target: T2, 14-3-3σ/C-RAF (Homo sapiens, UniProt P31947); test: Mass spectrometry dose response, compound binding to 14-3-3σ in the presence of C-RAF phosphopeptide; conditions: 100 nM compound, 100 nM 14-3-3σ, C-RAF peptide 18 µM
T2 construct: The 14-3-3 σ isoform (full-length for mass spectrometry and fluorescence anisotropy assays, ΔC for crystallography); made in house; host or cells: E. coli Rosetta 2(DE3)pLysS, pPROEX HTb vector
T2 sequence (P31947 1-248): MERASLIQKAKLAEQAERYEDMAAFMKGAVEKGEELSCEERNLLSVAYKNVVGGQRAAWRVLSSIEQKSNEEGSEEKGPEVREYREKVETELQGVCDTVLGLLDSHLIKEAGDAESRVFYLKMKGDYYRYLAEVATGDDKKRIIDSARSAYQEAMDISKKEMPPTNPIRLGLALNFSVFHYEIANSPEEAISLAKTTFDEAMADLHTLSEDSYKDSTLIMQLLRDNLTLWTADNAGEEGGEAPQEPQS
Summary of the method: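 Covalent binding of compounds to the native Cys38 of 14-3-3σ was monitored by LC-MS on a Waters Acquity UPLC/Xevo G2-XS Q-Tof, with samples desalted on a BEH-C4 column. Full-length wild type 14-3-3σ (100 nM) with C-RAF peptide in TRIS buffer (10 mM, pH 8.0) was incubated with compound dose series at room temperature.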

14-3-3σ/ERα [4] = target: T1, 14-3-3σ/ERα; test: Fluorescence anisotropy compound titration, FAM-labeled ERα peptide; type: binding; conditions: 10 nM ERα-FAM labeled peptide, 1 µM 14-3-3σ, overnight incubation (24 h); read-out: EC50 value ERα (FA compound titration)
Summary of the method: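 Fluorescence anisotropy compound titration measuring stabilization of the 14-3-3σ/ERα interaction: compounds were titrated in a 2-fold dilution series (starting at 500 or 1000 µM) into a mix of 10 nM fluorescein-labeled ERα peptide and 1 µM 14-3-3σ (about EC25 of the complex) in HEPES buffer with 1% DMSO, read after overnight incubation at room temperature; EC50 from 4PL fitting.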

14-3-3σ = target: T3, 14-3-3σ (Homo sapiens, UniProt P31947); test: Mass spectrometry dose response, compound binding to 14-3-3σ in the absence of peptide (apo); conditions: 100 nM compound, 100 nM 14-3-3σ
T3 construct: The 14-3-3 σ isoform (full-length for mass spectrometry and fluorescence anisotropy assays, ΔC for crystallography); made in house; host or cells: E. coli Rosetta 2(DE3)pLysS, pPROEX HTb vector
T3 sequence (P31947 1-248): T2 sequence (P31947 1-248)
Summary of the method: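 Covalent binding of compounds to Cys38 of full-length wild type human 14-3-3σ (100 nM) was measured by LC-MS without peptide present. Compounds from 50 mM DMSO stocks were serially diluted 3-fold and 1000 nl transferred to plates in TRIS buffer (10 mM, pH 8.0), 50 μl per well. Samples were desalted on a BEH-C4 column and analysed on a Xevo G2-XS Q-Tof at several time points.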

14-3-3σ/C-RAF [5] = target: T2, 14-3-3σ/C-RAF; test: Fluorescence anisotropy compound titration, FAM-labeled C-RAF peptide; type: binding; conditions: 10 nM C-RAF-FAM labeled peptide, 5 µM 14-3-3σ, overnight incubation; read-out: EC50 value C-RAF (FA compound titration)
Summary of the method: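 A fluorescence anisotropy compound titration measured how compounds stabilize binding of 14-3-3σ to a fluorescein-labeled C-RAF peptide. Compounds were diluted 2-fold, from 500 or 1000 µM, into 10 nM labeled peptide with 5 µM 14-3-3σ, roughly its EC25, in HEPES buffer with 1% DMSO. Plates were read after overnight incubation at room temperature. EC50 values came from 4PL fits over three independent experiments.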

Row | Structure (SMILES) | X Fold stabilization (100 µM compound) of 14-3-3σ/ERα (14-3-3σ/ERα [1]) | Percentage (%) bound of compound to 14-3-3σ, ERα 1h (14-3-3σ/ERα [2]) | Percentage (%) bound of compound to 14-3-3σ, ERα 8h (14-3-3σ/ERα [2]) | Percentage (%) bound of compound to 14-3-3σ, ERα 16h (14-3-3σ/ERα [2]) | Percentage (%) bound of compound to 14-3-3σ, ERα 24h (14-3-3σ/ERα [2]) | Percentage (%) bound of compound to 14-3-3σ, CRAF 1h (14-3-3σ/C-RAF [3]) | Percentage (%) bound of compound to 14-3-3σ, CRAF 8h (14-3-3σ/C-RAF [3]) | Percentage (%) bound of compound to 14-3-3σ, CRAF 24h (14-3-3σ/C-RAF [3]; 24h) | Percentage (%) bound of compound to 14-3-3σ, CRAF 24h (14-3-3σ/C-RAF [3]; head prints 24h) | EC50 (14-3-3σ/ERα [4]) | Percentage (%) bound of compound to 14-3-3σ, APO 1h (14-3-3σ) | Percentage (%) bound of compound to 14-3-3σ, APO 8h (14-3-3σ) | Percentage (%) bound of compound to 14-3-3σ, APO 16h (14-3-3σ) | Percentage (%) bound of compound to 14-3-3σ, APO 24h (14-3-3σ) | EC50 (14-3-3σ/C-RAF [5])
1 | C=CC(C)(C)OCC1OC(OC2C3=C(C(C)COC(C)=O)CC(O)C3(C)C=C3C(COC)CCC3C(C)C2O)C(O)C(OC(C)=O)C1O (stereo not shown) [FC-A, Fusicoccin-A, reference compound] | 166 fold | – | – | – | – | – | – | – | – | – | – | – | – | – | –
2 | O=C(CCl)NCC1CCN(C(=O)C2(Oc3ccc(Cl)cc3)CCCCC2)CC1 [compound 122] | – | 1.6% | 7.1% | 11.5% | 32.3% | 1.5% | 4.8% | 17.5% | 8.9% | 55 ± 14 µM | 0% | 0% | 0.8% | 1.3% | > 150 µM
3 | CC(C)(Nc1ccc(Cl)cc1)C(=O)N1CCC(CNC(=O)CCl)CC1 [compound 84] | – | 0.9% | 2.8% | 7.5% | 19.0% | 0.8% | 1.0% | 3.3% | 2.9% | 55 ± 2 µM | 0% | 0% | 1.0% | 5.8% | > 150 µM
4 | O=C(CCl)N1CCC2(CC1)CC(CNC(=O)C1(Nc3ccc(Cl)cc3)CCOCC1)C2 [compound 175] | – | 21.7% | 39.4% | 64.1% | 87.3% | 2.4% | 6.0% | 17.4% | 9.6% | 15 ± 2 µM | 1.9% | 5.4% | 10.6% | 16.7% | > 150 µM
5 | CC(C)(Oc1ccc(Cl)cc1)C(=O)N1CCC(NC(=O)CCl)CC1 [compound 26] | – | 0% | 0% | 0% | 1.8% | 0.0% | 1.0% | 4.3% | 2.6% | > 150 µM | 0% | 0% | 0% | 0% | > 150 µM
6 | O=C(CCl)NCC1CCN(C(=O)C2(Oc3ccc(Cl)cc3)CCCC2)CC1 [compound 117] | – | 5.6% | 15.7% | 34.4% | 63.7% | 10.7% | 21.4% | 47.3% | 33.7% | 15 ± 2 µM | 0% | 0.3% | 0.8% | 1.1% | 32 ± 8 µM
7 | CC(C)(Oc1ccc(Cl)cc1)C(=O)N1CCC(CCNC(=O)CCl)CC1 [compound 28] | – | 0.3% | 1.5% | 4.2% | 10.9% | 3.1% | 7.5% | 40.1% | 22.1% | 24 ± 16 µM | 1.0% | 1.0% | 1.9% | 1.9% | 40 ± 1 µM
